In publication PMC4104496 (Clinical cancer research : an official journal of the …, 2012):
Where two headings read alike, the source gives them in different places.

Columns and labels:
[1] = for Cmax/dose / Tmax: iv
clinical = conditions: human, in vivo, iv

SMILES | AUC/dose ([1]; human, in vivo) | CL or CL/F ([1]; human, in vivo) | T1/2 (terminal elimination half-life) ([1]; human, in vivo) | Cmax/dose ([1]; human, in vivo) | Tmax ([1]; human, in vivo) | V or V/F ([1]; in vivo) | trough concentrations ([1]; in vivo) | further results
CCc1c2c(nc3ccc(OC(=O)N4CCC(NCCCCC(=O)O)CC4)cc13)-c1cc3c(c(=O)n1C2)COC(=O)C3(O)CC (stereo not drawn) [APC, 7-ethyl-10-(4-N-(5-aminopentanoic acid)-1-piperidine)carbonyloxycamptothecin] | 13 (73) h*ng/mL/mg/m^2 | 96 (49) L/h/m^2 | 58 (8) d | 0.08 (118) ng/mL/mg/m^2 | 20 (41) h | 170 L/m^2 | detectable | terminal disposition half-life ([1]; human, in vivo): 53 days
CCc1c2c(nc3ccc(OC(=O)N4CCC(N)CC4)cc13)-c1cc3c(c(=O)n1C2)COC(=O)[C@]3(O)CC [NPC, 7-ethyl-10-(4-amino-1-piperidino) carbonyloxycamptothecin] |  |  |  |  |  |  |  | plasma concentrations ([1]; in vivo): near the limit of quantitation
CCc1c2c(nc3ccc(O[C@@H]4O[C@H](C(=O)O)[C@@H](O)[C@H](O)[C@H]4O)cc13)-c1cc3c(c(=O)n1C2)COC(=O)[C@]3(O)CC [SN-38-G, SN-38-glucuronide] |  |  |  |  |  |  |  | T1/2 (terminal elimination half-life) ([1]; Mean (%CV), plasma, 76 patients, after etirinotecan pegol 58 to 245 mg/m^2): 61 (37) d; trough concentrations ([1]; after etirinotecan pegol dosing with all 3 schedules): detectable; terminal disposition half-life ([1]; plasma, patients, after etirinotecan pegol administration): 61 days
CCc1c2c(nc3ccc(O)cc13)-c1cc3c(c(=O)n1C2)COC(=O)[C@]3(O)CC [SN-38] | 8 (52) h*ng/mL/mg/m^2 | 170 (59) L/h/m^2 | 50 (28) d | 0.02 (55) ng/mL/mg/m^2 | 13 (170) h | 27 L/m^2 | detectable | 
CCc1c2c(nc3ccc(OC(=O)N4CCC(N5CCCCC5)CC4)cc13)-c1cc3c(c(=O)n1C2)COC(=O)[C@]3(O)CC [irinotecan, reference compound] |  |  |  |  |  |  | detectable | Tmax (clinical): 0.167 days
